Test results from ChEMBL document CHEMBL5329205, “Development of novel quinoline-NO donor hybrids inducing human breast cancer cells apoptosis via inhibition of topoisomerase I” (Bioorg Med Chem, 2023).
Activity calls are given as the source filed them. No cut-off for these calls is given here.

What was measured:
[1] = test system: A549; experiment: Antiproliferative activity against human A549 cells assessed as inhibition of cell growth incubated for 48 hrs by MTT assay; format: functional, cell-based; details: A549, 48 h
[2] = test system: MCF7; experiment: Antiproliferative activity against human MCF7 cells assessed as NO release at 4 uM preincubated with PTIO for 2 hrs followed by compound addition and measured after 24 hrs by total nitric oxide assay; format: functional, cell-based
[3] = test system: MCF7; experiment: Induction of apoptosis in human MCF7 cells assessed as upregulation of Bax expression incubated for 24 hrs by Western blot analysis; format: functional, cell-based; details: dose 1-4 µM
[4] = test system: MCF7; experiment: Induction of apoptosis in human MCF7 cells assessed as upregulation of Bad expression incubated for 24 hrs by Western blot analysis; format: functional, cell-based; details: dose 1-4 µM
[5] = test system: MCF7; experiment: Induction of apoptosis in human MCF7 cells assessed as upregulation of cleaved caspase-3 expression incubated for 24 hrs by Western blot analysis; format: functional, cell-based; details: dose 1-4 µM
[6] = test system: MCF7; experiment: Induction of ROS generation in human MCF7 cells at 0.1 uM incubated for 24 hrs by DCFH-DA staining based fluorescent microscopic analysis; format: functional, cell-based
[7] = test system: MCF7; experiment: Induction of apoptosis in human MCF7 cells assessed as total apoptotic cells at 0.75 to 3 uM incubated for 48 hrs by Annexin-V/PI staining based flow cytometry analysis (reference value: 0.3 %); format: functional; details: dose 0.75-3 µM
[8] = test system: MCF7; experiment: Induction of apoptosis in human MCF7 cells assessed as early apoptotic cells at 3 uM incubated for 48 hrs by Annexin-V/PI staining based flow cytometry analysis (reference value: 0.3%); format: functional
[9] = test system: MCF7; experiment: Induction of apoptosis in human MCF7 cells assessed as late apoptotic cells at 3 uM incubated for 48 hrs by Annexin-V/PI FITC staining based flow cytometry analysis (reference value: 0.0%); format: functional
[10] = test system: MCF7; experiment: Induction of cell cycle arrest in human MCF7 cells assessed as G1 phase cells at 0.75 uM incubated for 24 hrs by PI/RNaseA staining based flow cytometry analysis (reference value: 66.08 %); format: functional
[11] = test system: MCF7; experiment: Induction of cell cycle arrest in human MCF7 cells assessed as G1 phase cells at 1.5 uM incubated for 24 hrs by PI/RNaseA staining based flow cytometry analysis (reference value: 66.08 %); format: functional
[12] = test system: MCF7; experiment: Induction of cell cycle arrest in human MCF7 cells assessed as G1 phase cells at 3 uM incubated for 24 hrs by PI/RNaseA staining based flow cytometry analysis (reference value: 66.08 %); format: functional
[13] = test system: MCF7; experiment: Induction of cell cycle arrest in human MCF7 cells assessed as S phase cells at 0.75 uM incubated for 24 hrs by PI/RNaseA staining based flow cytometry analysis (reference value: 22.2 %); format: functional
[14] = test system: MCF7; experiment: Induction of cell cycle arrest in human MCF7 cells assessed as S phase cells at 1.5 uM incubated for 24 hrs by PI/RNaseA staining based flow cytometry analysis (reference value: 22.2 %); format: functional
[15] = test system: MCF7; experiment: Induction of cell cycle arrest in human MCF7 cells assessed as S phase cells at 3 uM incubated for 24 hrs by PI/RNaseA staining based flow cytometry analysis (reference value: 22.2 %); format: functional
[16] = test system: MCF7; experiment: Induction of cell cycle arrest in human MCF7 cells assessed as G2 phase cells at 0.75 uM incubated for 24 hrs by PI/RNaseA staining based flow cytometry analysis (reference value: 7.67 %); format: functional
[17] = test system: MCF7; experiment: Induction of cell cycle arrest in human MCF7 cells assessed as G2 phase cells at 3 uM incubated for 24 hrs by PI/RNaseA staining based flow cytometry analysis (reference value: 7.67 %); format: functional
[18] = molecular target: ATP-dependent translocase ABCB1 (Homo sapiens, UniProt P08183); experiment: Inhibition of P-glycoprotein mediated Rhodamine-123 transport in human MCF7ADR cells assessed as increase in fluorescence index of rhodamine-123 at 1.5 to 3 uM incubated for 24 hrs by flow cytometry analysis; format: cell-based; details: dose 1.5-3 µM
[19] = test system: MCF7; experiment: Antitumor activity against human MCF7 cells xenografted in BALB/c nude mouse assessed as reduction in tumor weight at 10 mg/kg, ip administered once every two days for 3 weeks relative to control; format: functional; parameters: scale not given: the % may be the effect or the level left
[20] = Toxicity in BALB/c nude mouse xenografted with human MCF7 cells assessed as heart damage at 5 mg/kg, ip administered once every two days for 3 weeks by H and E staining based microscopic analysis; format: organism-based; details: in vivo, 504 h
[21] = Toxicity in BALB/c mouse xenografted with human MCF7 cells assessed as liver damage at 5 mg/kg, ip administered once every two days for 3 weeks by H and E staining based microscopic analysis; format: organism-based; details: in vivo, 504 h
[22] = Toxicity in BALB/c mouse xenografted with human MCF7 cells assessed as lung damage at 5 mg/kg, ip administered once every two days for 3 weeks by H and E staining based microscopic analysis; format: organism-based; details: in vivo, 504 h
[23] = Toxicity in BALB/c mouse xenografted with human MCF7 cells assessed as kidney damage at 5 mg/kg, ip administered once every two days for 3 weeks by H and E staining based microscopic analysis; format: organism-based; details: in vivo, 504 h
[24] = Toxicity in BALB/c mouse xenografted with human MCF7 cells assessed as heart damage at 10 mg/kg, ip administered once every two days for 3 weeks by H and E staining based microscopic analysis; format: organism-based; details: in vivo, 504 h
[25] = Toxicity in BALB/c mouse xenografted with human MCF7 cells assessed as spleen damage at 10 mg/kg, ip administered once every two days for 3 weeks by H and E staining based microscopic analysis; format: organism-based; details: in vivo, 504 h
[26] = Toxicity in BALB/c mouse xenografted with human MCF7 cells assessed as lung damage at 10 mg/kg, ip administered once every two days for 3 weeks by H and E staining based microscopic analysis; format: organism-based; details: in vivo, 504 h
[27] = Toxicity in BALB/c mouse xenografted with human MCF7 cells assessed as kidney damage at 10 mg/kg, ip administered once every two days for 3 weeks by H and E staining based microscopic analysis; format: organism-based; details: in vivo, 504 h
[28] = test system: MCF7; experiment: Induction of apoptosis in human MCF7 cells assessed as bright blue appearance of cells upto 3 uM incubated for 48 hrs by Hoechst-33342 staining based fluorescent microscopic analysis; format: functional, cell-based
[29] = test system: MCF7; experiment: Induction of apoptosis in human MCF7 cells assessed as boundary consolidation upto 3 uM incubated for 48 hrs by Hoechst-33342 staining based fluorescent microscopic analysis; format: functional, cell-based
[30] = test system: MCF7; experiment: Induction of apoptosis in human MCF7 cells assessed as early apoptotic cells at 0.75 uM incubated for 48 hrs by Annexin-V/PI staining based flow cytometry analysis (reference value: 0.3%); format: functional
[31] = test system: MCF7; experiment: Induction of apoptosis in human MCF7 cells assessed as viable cells at 1.5 uM incubated for 48 hrs by Annexin-V/PI staining based flow cytometry analysis (reference value: 99.7%); format: functional; details: read-out: Activity
[32] = test system: MCF7; experiment: Induction of apoptosis in human MCF7 cells assessed as early apoptotic cells at 1.5 uM incubated for 48 hrs by Annexin-V/PI staining based flow cytometry analysis (reference value: 0.3%); format: functional
[33] = test system: MCF7; experiment: Induction of apoptosis in human MCF7 cells assessed as late apoptotic cells at 1.5 uM incubated for 48 hrs by Annexin-V/PI staining based flow cytometry analysis (reference value: 0.0%); format: functional
[34] = test system: MCF7; experiment: Induction of apoptosis in human MCF7 cells assessed as necrotic cells at 1.5 uM incubated for 48 hrs by Annexin-V/PI staining based flow cytometry analysis (reference value: 0.0%); format: functional
[35] = test system: MCF7; experiment: Induction of apoptosis in human MCF7 cells assessed as viable cells at 3 uM incubated for 48 hrs by Annexin-V/PI staining based flow cytometry analysis (reference value: 99.7%); format: functional; details: read-out: Activity

ATP-dependent translocase ABCB1, sequence (P08183 whole entry): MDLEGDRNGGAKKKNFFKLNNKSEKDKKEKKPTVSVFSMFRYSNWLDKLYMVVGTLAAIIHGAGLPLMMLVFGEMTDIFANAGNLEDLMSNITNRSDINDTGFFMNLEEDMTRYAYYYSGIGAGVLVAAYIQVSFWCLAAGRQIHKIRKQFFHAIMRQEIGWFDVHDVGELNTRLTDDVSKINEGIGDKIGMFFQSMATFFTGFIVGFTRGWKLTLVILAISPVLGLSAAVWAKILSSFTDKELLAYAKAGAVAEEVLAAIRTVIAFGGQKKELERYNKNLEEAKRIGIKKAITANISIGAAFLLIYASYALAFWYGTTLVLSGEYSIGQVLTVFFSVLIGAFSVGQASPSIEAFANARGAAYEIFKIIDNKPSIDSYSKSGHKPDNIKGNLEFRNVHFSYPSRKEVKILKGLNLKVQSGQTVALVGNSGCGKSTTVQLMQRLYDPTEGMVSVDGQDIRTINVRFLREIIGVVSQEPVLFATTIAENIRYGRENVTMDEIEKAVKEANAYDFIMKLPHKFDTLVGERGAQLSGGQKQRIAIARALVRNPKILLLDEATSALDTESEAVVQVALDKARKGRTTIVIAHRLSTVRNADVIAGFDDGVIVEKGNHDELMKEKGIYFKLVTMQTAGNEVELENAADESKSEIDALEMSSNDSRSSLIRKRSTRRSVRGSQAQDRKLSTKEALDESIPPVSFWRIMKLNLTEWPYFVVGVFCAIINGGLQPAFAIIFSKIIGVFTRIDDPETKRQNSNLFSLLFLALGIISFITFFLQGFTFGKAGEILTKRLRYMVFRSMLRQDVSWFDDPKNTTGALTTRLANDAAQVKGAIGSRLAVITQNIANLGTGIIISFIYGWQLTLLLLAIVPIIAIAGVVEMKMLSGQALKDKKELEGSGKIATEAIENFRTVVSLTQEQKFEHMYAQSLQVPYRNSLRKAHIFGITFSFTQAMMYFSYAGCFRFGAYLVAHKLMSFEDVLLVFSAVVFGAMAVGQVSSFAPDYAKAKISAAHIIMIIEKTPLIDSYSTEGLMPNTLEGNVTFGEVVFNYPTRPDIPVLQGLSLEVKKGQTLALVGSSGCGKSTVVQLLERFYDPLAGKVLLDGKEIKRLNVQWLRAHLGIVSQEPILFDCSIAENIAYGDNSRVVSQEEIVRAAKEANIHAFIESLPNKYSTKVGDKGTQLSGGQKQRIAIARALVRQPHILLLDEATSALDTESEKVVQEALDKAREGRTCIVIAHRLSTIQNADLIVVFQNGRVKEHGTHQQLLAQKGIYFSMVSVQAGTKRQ

In the case of COc1cc(-c2cc(C(=O)OCCCCCOc3no[n+]([O-])c3S(=O)(=O)c3ccccc3)c3ccccc3n2)cc(OC)c1OC, the IC50 [1] is reported as 2130 nM, the Activity [2] is reported as “inactive” and the Activity [3] is reported as “Dose-Dependent Effect”. For the same compound, the Activity [4] was “Dose-Dependent Effect”, the Activity [5] was “Dose-Dependent Effect” and the Activity [6] was “Active”. The Activity [7] was 64.3%, the Activity [8] was 14.3% and the Activity [9] was 50%. The Activity [10] was 65.47%, the Activity [11] was 61.5% and the Activity [12] was 58.98%. It also gave an Activity [13] of 22.08%, an Activity [14] of 20.71% and an Activity [15] of 17.82%. The Activity [16] was 10.62%, the Activity [17] was 23.52% and the “inhibition (INH)” value [18] was “Active”. For the same compound, the Activity [19] was 66.79%, the Activity [20] was “Non-Toxic” and the Activity [21] was “Non-Toxic”. For the same compound, the Activity [22] was “Non-Toxic”, the Activity [23] was “Non-Toxic” and the Activity [24] was “Non-Toxic”. The Activity [25] was “Non-Toxic”, the Activity [26] was “Non-Toxic” and the Activity [27] was “Non-Toxic”. The Activity [28] was “Active”, the Activity [29] was “Active” and the Activity [30] was 11.9%. For the same compound, the viability at 1.5 µM [31] was 65.4%, the Activity [32] was 13.2% and the Activity [33] was 18.1%. For the same compound, the Activity [34] was 3.3% and the viability at 3 µM [35] was 34.4%.
